The text below walks through data of PubChem BioAssay (NCI).

Molecules are shown by their SMILES.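 Exposure lasted 48 hours, with cells grown in 96-well plates and compounds tested at five concentrations. GI50 marks 50% less growth. TGI is the concentration that stops growth completely.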

Some test systems named below: DLD-1 colon; HL-60(TB) leukemia; KM20L2 colon; M19-MEL melanoma; SF-539 CNS; UACC-257 melanoma; BT-549 breast; MCF7 breast; T-47D breast; SNB-78 CNS.
Holding throughout (experiment): NCI-60 cell line screen, 48 h

As to `CC1(C)OC(C(N)=O)=C(C(N)=O)O1`, the TGI with DLD-1 colon, in the assay on HL-60(TB) leukemia, in the assay with KM20L2 colon, in the assay on M19-MEL melanoma, in the assay on SF-539 CNS and in the assay on UACC-257 melanoma was above 100 µM each time.

Consider `CCOC(=O)c1c(C)nc2ccc(Cl)cc2c1-c1ccccc1`, for which the GI50 was 22.5 µM in the assay on BT-549 breast; 14.2 µM with HL-60(TB) leukemia; 24 µM with MCF7 breast; 19.6 µM in the assay on SF-539 CNS; 12.9 µM with T-47D breast; 25.5 µM with UACC-257 melanoma. Moreover, the TGI with BT-549 breast stood at 57.2 µM; with HL-60(TB) leukemia, 41 µM; in the assay on MCF7 breast, 70.4 µM; in the assay on SF-539 CNS it was 39.9 µM; with T-47D breast it was 47.8 µM; in the assay on UACC-257 melanoma, 83.1 µM.

In the case of `Clc1cc(Cl)c(Cl)c(-c2nc(-c3cccnc3)cs2)c1`, the GI50 was 20.6 µM in the assay on BT-549 breast; 14.3 µM in the assay with HL-60(TB) leukemia; 10.4 µM with MCF7 breast; 10.7 µM in the assay with SF-539 CNS; 12.7 µM in the assay with T-47D breast; 15.3 µM in the assay with UACC-257 melanoma. Moreover, the TGI with BT-549 breast was 70.2 µM; in the assay on HL-60(TB) leukemia, above 100 µM; with MCF7 breast, above 100 µM; with SF-539 CNS, 25.4 µM; with T-47D breast, 65.4 µM; in the assay with UACC-257 melanoma it was 64.8 µM.

`O=C(O)CC(Nc1ccccc1)C(=O)O` (stereo unspecified): the TGI with BT-549 breast, in the assay with HL-60(TB) leukemia, with MCF7 breast, in the assay on SF-539 CNS, in the assay on T-47D breast and in the assay with UACC-257 melanoma was above 100 µM in each case.

For `CC(=O)OCc1cc(OC(C)=O)cnc1COC(C)=O`, the TGI in the assay with DLD-1 colon, with HL-60(TB) leukemia, in the assay with KM20L2 colon, in the assay on M19-MEL melanoma, in the assay on SF-539 CNS and in the assay on UACC-257 melanoma was above 100 µM throughout.

In the case of `COc1ccc(/C=C2\CN(Cc3cn(CCCNc4ccnc5cc(Cl)ccc45)nn3)C/C(=C\c3ccc(OC)c(OC)c3)C2=O)cc1OC`, the GI50 with BT-549 breast was 1.81 µM; in the assay on HL-60(TB) leukemia, 0.685 µM; with MCF7 breast, 0.503 µM; in the assay on SF-539 CNS, 1.99 µM; in the assay on T-47D breast, 2.42 µM; in the assay with UACC-257 melanoma, 2.24 µM. Further, the TGI in the assay with BT-549 breast worked out at 3.79 µM; in the assay with HL-60(TB) leukemia it was 4.03 µM; in the assay on MCF7 breast, 2.45 µM; in the assay with SF-539 CNS it was 4.76 µM; in the assay on T-47D breast, 9.42 µM; in the assay with UACC-257 melanoma, 12 µM.

With `O=C(O)c1ccc2c(c1Nc1ccccc1)C(=O)c1ccccc1C2=O`, the GI50 in the assay with BT-549 breast was 16.5 µM; in the assay with HL-60(TB) leukemia, 79.3 µM; in the assay on MCF7 breast it was 38.1 µM; with SF-539 CNS, 56.2 µM; in the assay on T-47D breast, 45.6 µM; in the assay on UACC-257 melanoma, 54.8 µM. The TGI in the assay on BT-549 breast is 70 µM; in the assay with HL-60(TB) leukemia, above 100 µM; with MCF7 breast, above 100 µM; with SF-539 CNS, above 100 µM; in the assay with T-47D breast, above 100 µM; in the assay on UACC-257 melanoma, above 100 µM.

As to `C#CCOCn1cnc2c(=S)nc[nH]c21`, the TGI in the assay on DLD-1 colon, with HL-60(TB) leukemia, with KM20L2 colon, in the assay on M19-MEL melanoma and in the assay on UACC-257 melanoma was above 100 µM throughout.

As to `ClCc1ccc(-c2ccc(Cn3cnc4c(Cl)nc(Cl)nc43)cc2)cc1`, the GI50 in the assay on BT-549 breast was 3.71 µM; in the assay with HL-60(TB) leukemia it was 3.25 µM; with MCF7 breast, 1.69 µM; in the assay with SF-539 CNS, 2.14 µM; with T-47D breast, 1.9 µM; in the assay with UACC-257 melanoma it was 1.5 µM. In addition, the TGI in the assay on BT-549 breast was 15.5 µM; with HL-60(TB) leukemia it was above 100 µM; in the assay with MCF7 breast it was 3.51 µM; with SF-539 CNS, 4.99 µM; in the assay with T-47D breast, 4.64 µM; in the assay with UACC-257 melanoma, 3.64 µM.

Regarding `Cc1c2c(nn1C(=O)c1nn(-c3ccc(Cl)cc3)cc1O)-c1ccccc1CC2`, the GI50 in the assay with BT-549 breast was 0.0306 µM; in the assay on HL-60(TB) leukemia it was 0.0507 µM; in the assay on MCF7 breast, 0.115 µM; in the assay with SF-539 CNS it was 0.041 µM; with T-47D breast, 0.0594 µM; in the assay with UACC-257 melanoma, 0.218 µM. In addition, the TGI was above 100 µM in the assay with BT-549 breast; 1.12 µM in the assay on HL-60(TB) leukemia; above 100 µM with MCF7 breast; 28.1 µM in the assay on SF-539 CNS; above 100 µM in the assay on T-47D breast; 9.73 µM in the assay on UACC-257 melanoma.

As to `COc1cc(/C=C/C(=O)c2ccc(Nc3ncnc4ccccc34)cc2)cc(OC)c1`, the GI50 was 3.34 µM in the assay with BT-549 breast; 3.74 µM in the assay on HL-60(TB) leukemia; 1.84 µM in the assay with MCF7 breast; 4.98 µM in the assay with SF-539 CNS; 6.2 µM in the assay on T-47D breast; 9.7 µM in the assay with UACC-257 melanoma. Moreover, the TGI is 11.9 µM in the assay on BT-549 breast; 30.4 µM in the assay on HL-60(TB) leukemia; 5.79 µM with MCF7 breast; 18 µM in the assay on SF-539 CNS; 39.4 µM in the assay with T-47D breast; 34.1 µM in the assay with UACC-257 melanoma.

Turning to `COC(=O)C1=CN=C(C(=O)OC)NN1`, the TGI in the assay with DLD-1 colon, in the assay on HL-60(TB) leukemia, in the assay with KM20L2 colon, in the assay with M19-MEL melanoma, in the assay with SF-539 CNS and in the assay on UACC-257 melanoma was above 100 µM in each case.

As for `COc1cc(/C=C2\CN(C)C/C(=C\c3cc(OC)c(OC)c(OC)c3)C2=O)cc(OC)c1OC`, the GI50 is 0.295 µM in the assay on BT-549 breast; 0.34 µM in the assay on HL-60(TB) leukemia; 0.317 µM with MCF7 breast; 0.379 µM with SF-539 CNS; 1.12 µM in the assay with T-47D breast; 0.245 µM in the assay with UACC-257 melanoma. Also, the TGI amounted to 0.923 µM in the assay on BT-549 breast; 1.67 µM in the assay with HL-60(TB) leukemia; 1.83 µM with MCF7 breast; 1.33 µM in the assay with SF-539 CNS; 5.02 µM in the assay with T-47D breast; 0.758 µM in the assay on UACC-257 melanoma.

Turning to `ClC1CCC2OOC1O2` (stereo unspecified), the TGI in the assay with HL-60(TB) leukemia, in the assay with KM20L2 colon, in the assay on M19-MEL melanoma, in the assay with SF-539 CNS, in the assay with SNB-78 CNS and with UACC-257 melanoma was above 100 µM in each case.
